Columns and labels:
Test in all cases: relative viability (nuclei count vs DMSO), 5 days (fraction); higher = more cells survive
[1] = system: BEN; settings: first compound 0.5 µM
In short: (§1)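 Dosing by pin tool came one day after lung cancer cell lines were seeded in 1536-well plates, using either one drug or a fixed anchor-drug dose plus five library-drug doses (not always all listed) in √10 steps. After 5 days, nuclei were counted on 4× images. Relative viability is treated-well nuclei count divided by vehicle-well nuclei count, and values are medians of duplicate plates.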

[2] = system: NCI-H647
In short: as §1

[3] = system: NCI-H661
In short: as §1

[4] = system: SK-MES-1
In short: as §1

[5] = system: NCI-H522
In short: as §1

[6] = system: NCI-H2170
In short: as §1

[7] = system: NCI-H1355
In short: as §1

[8] = system: NCI-H1395
In short: as §1

[9] = system: NCI-H2342
In short: as §1

[10] = system: NCI-H1792
In short: as §1

[11] = system: NCI-H2405
In short: as §1

[12] = system: NCI-H2009
In short: as §1

Question: `COc1cc2nccc(Oc3ccc(NC(=O)Nc4cc(C)on4)c(Cl)c3)c2cc1OC` [Tivozanib] + N=C(N)NC(=N)NCCc1ccccc1 [Phenformin] (partner 250 µM) was tested. Which relative viability [1] did it give?
Answer: 0.234

Question: And the relative viability ([2]; first compound 0.005 µM)?
Answer: 0.538

Question: What about the relative viability ([2]; first compound 0.01581 µM) of the same compound?
Answer: 0.457

Question: What about the relative viability ([2]; first compound 0.05 µM) of the same compound?
Answer: 0.473

Question: What about the relative viability ([2]; first compound 0.1581 µM) of the same compound?
Answer: 0.469

Question: What about the relative viability ([2]; first compound 0.5 µM) of the same compound?
Answer: 0.497

Question: What about the relative viability ([3]; first compound 0.005 µM) of the same compound?
Answer: 0.264

Question: What about the relative viability ([3]; first compound 0.01581 µM) of the same compound?
Answer: 0.277

Question: And the relative viability ([3]; first compound 0.05 µM)?
Answer: 0.277

Question: And the relative viability ([3]; first compound 0.1581 µM)?
Answer: 0.278

Question: What about the relative viability ([3]; first compound 0.5 µM) of the same compound?
Answer: 0.249

Question: And the relative viability ([4]; first compound 0.005 µM)?
Answer: 0.622

Question: And the relative viability ([4]; first compound 0.01581 µM)?
Answer: 0.676

Question: What about the relative viability ([4]; first compound 0.05 µM) of the same compound?
Answer: 0.71

Question: And the relative viability ([4]; first compound 0.1581 µM)?
Answer: 0.688

Question: And the relative viability ([4]; first compound 0.5 µM)?
Answer: 0.602

Question: And the relative viability ([5]; first compound 0.005 µM)?
Answer: 0.595

Question: And the relative viability ([5]; first compound 0.01581 µM)?
Answer: 0.73

Question: What about the relative viability ([5]; first compound 0.05 µM) of the same compound?
Answer: 0.593

Question: What about the relative viability ([5]; first compound 0.1581 µM) of the same compound?
Answer: 0.619

Question: What about the relative viability ([5]; first compound 0.5 µM) of the same compound?
Answer: 0.705

Question: And the relative viability ([6]; first compound 0.005 µM)?
Answer: 0.413

Question: What about the relative viability ([6]; first compound 0.01581 µM) of the same compound?
Answer: 0.42

Question: And the relative viability ([6]; first compound 0.05 µM)?
Answer: 0.395

Question: What about the relative viability ([6]; first compound 0.1581 µM) of the same compound?
Answer: 0.424

Question: And the relative viability ([6]; first compound 0.5 µM)?
Answer: 0.421

Question: And the relative viability ([7]; first compound 0.005 µM)?
Answer: 0.413

Question: What about the relative viability ([7]; first compound 0.01581 µM) of the same compound?
Answer: 0.432

Question: And the relative viability ([7]; first compound 0.05 µM)?
Answer: 0.481

Question: What about the relative viability ([7]; first compound 0.1581 µM) of the same compound?
Answer: 0.43

Question: And the relative viability ([7]; first compound 0.5 µM)?
Answer: 0.382

Question: And the relative viability ([8]; first compound 0.005 µM)?
Answer: 0.357

Question: What about the relative viability ([8]; first compound 0.01581 µM) of the same compound?
Answer: 0.475

Question: What about the relative viability ([8]; first compound 0.05 µM) of the same compound?
Answer: 0.444

Question: What about the relative viability ([8]; first compound 0.1581 µM) of the same compound?
Answer: 0.426

Question: What about the relative viability ([8]; first compound 0.5 µM) of the same compound?
Answer: 0.383

Question: And the relative viability ([9]; first compound 0.005 µM)?
Answer: 0.554

Question: And the relative viability ([9]; first compound 0.01581 µM)?
Answer: 0.585

Question: What about the relative viability ([9]; first compound 0.05 µM) of the same compound?
Answer: 0.59

Question: What about the relative viability ([9]; first compound 0.5 µM) of the same compound?
Answer: 0.632

Question: What about the relative viability ([10]; first compound 0.005 µM) of the same compound?
Answer: 0.316

Question: And the relative viability ([10]; first compound 0.01581 µM)?
Answer: 0.394

Question: What about the relative viability ([10]; first compound 0.05 µM) of the same compound?
Answer: 0.361

Question: What about the relative viability ([10]; first compound 0.5 µM) of the same compound?
Answer: 0.388

Question: And the relative viability ([11]; first compound 0.005 µM)?
Answer: 0.418

Question: What about the relative viability ([11]; first compound 0.01581 µM) of the same compound?
Answer: 0.401

Question: And the relative viability ([11]; first compound 0.05 µM)?
Answer: 0.436

Question: And the relative viability ([11]; first compound 0.1581 µM)?
Answer: 0.373

Question: What about the relative viability ([11]; first compound 0.5 µM) of the same compound?
Answer: 0.375

Question: What about the relative viability ([12]; first compound 0.005 µM) of the same compound?
Answer: 0.448

Question: And the relative viability ([12]; first compound 0.01581 µM)?
Answer: 0.473

Question: What about the relative viability ([12]; first compound 0.05 µM) of the same compound?
Answer: 0.453

Question: What about the relative viability ([12]; first compound 0.1581 µM) of the same compound?
Answer: 0.478

Question: And the relative viability ([12]; first compound 0.5 µM)?
Answer: 0.344

From the supplement of paper PMC10307832
